# From publication PMC7690585, “Target-Mediated Brain Tissue Binding for Small Molecule Inhibitors of Heat Shock Protein 90” (Pharmaceutics, 2020)
# Test: in vitro
# Details: NMRI, mouse, brain homogenate, pH 7
# Description: Brain tissue from Naval Medical Research Institute (NMRI) mice was homogenized in phosphate buffer (1 g: 2 mL) and stored in −80 °C freezer before use. For dialysis experiment, 150 µL of brain homogenate (fresh blood collected on EDTA-K2 and diluted 1:1 with phosphate buffer or plasma) was added to one compartment of a dialysis plate (assembled according to the manufacturer instructions with a dialysis membrane between the 2 compartments) against 150 µL of phosphate buffer pH 7. The test compound was added to the compartment with brain homogenate (or plasma) and the plate was incubated in an incubator with a 5% CO2 and rotating at 150 rpm for 5 h. At the end of the incubation time, aliquots of 90 µL of samples were removed from both the buffer and the brain homogenate compartments. The aliquots were added to 120 µL of acetonitrile containing the internal standard. The mixture was centrifuged at 4000 rpm for 10 min and the supernatant was collected for LC-MS/MS analysis. All equilibrium dialysis studies were performed in triplicate at each tested concentration.
# Binding to brain tissues was assessed using 6 different concentrations of test items ranging from 0.3 to 100 µM. Warfarin was used as control.
# Determination of fractions unbound was conducted according to the equations below:fu = Creceiver (CT0 − Creceiver)(1)
# In brain homogenate (blood or plasma):(2) % Undiluted fu=100 ×1/D/1/fu−1+1/D (3) % Recovery=100 × Creceiver +Cdonor/CT0 where
# Dilution factor (D) is determined as 3 in this assay.
smiles,measurement,setting,value
CC(=O)CC(c1ccccc1)c1c(O)c2ccccc2oc1=O (stereo not shown) [Warfarin],Ratio (30 µM/1 µM) Unbound Fractions in Brain,5 h,1.5
same,"fraction unbound at 5 h, 0.3 µM",,0.086 ± 0.002
same,"fraction unbound at 5 h, 1 µM",,0.112 ± 0.001
same,"fraction unbound at 5 h, 3 µM",,0.143 ± 0.005
same,"fraction unbound at 5 h, 10 µM",,0.143 ± 0.006
same,"fraction unbound at 5 h, 30 µM",,0.168 ± 0.006
same,"fraction unbound at 5 h, 100 µM",,0.179 ± 0.009
